This passage reports IC50 results from patent US9617260B2, “Inhibitors of bruton's tyrosine kinase” (Hoffmann-La Roche Inc., priority 2013, dated 2017).

This test concerns the target Bruton's Tyrosine Kinase (BTK), inactivated state (Homo sapiens (Human), UniProt Q06187). As to the kind of experiment: Bruton's Tyrosine Kinase (BTK) Inhibition TR-FRET (Time Resolved FRET) competition assay. The note with it: competition with Kinase Tracer 178 for BTK-Eu; plates incubated 18-24 h at 14° C. The test is classed as binding. As for the experimental part:
Bruton's Tyrosine Kinase (BTK) Inhibition TR-FRET (Time Resolved FRET) Assay
This BTK competition assay measures compound potency (IC50) for the inactivated state of Bruton's Tyrosine Kinase using FRET (Förster/Fluoresence Resonance Energy Transfer) technology. The BTK-Eu complex was incubated on ice one hour prior to use at a starting concentration of 50 nM BTK-Bioease™: 10 nM Eu-streptavidin (Perkin-Elmer Catalog #AD0062). The assay buffer consisted of 20 mM HEPES (pH 7.15), 0.1 mM DTT, 10 mM MgCl2, 0.5 mg/ml BSA with 3% Kinase Stabilizer (Fremont Biosolutions, Catalog #STB-K02). After 1 h, the reaction mixture from above was diluted 10 fold in assay buffer to make 5 nM BTK: 1 nM Eu-Streptavidin complex (donor fluorophore). 18 μl of a mixture of 0.11 nM BTK-Eu and 0.11 nM Kinase Tracer 178 (Invitrogen, Catalog #PV5593,) with BTK-Eu alone as no negative control, was then dispensed into 384-well flat bottom plates (Greiner, 784076). Compounds to be tested in assay were prepared as 10× concentrations and serial dilution in half-log increments was performed in DMSO so as to generate 10 point curves. To initiate the FRET reaction, compounds prepared as 10× stock in DMSO was added to the plates and the plates were incubated 18-24 h at 14° C.
After the incubation the plates were read on a BMG Pherastar Fluorescent plate reader (or equivalent) and used to measure the emission energy from the europium donor fluorophore (620 nm emission) and the FRET (665 nm emission). The negative control well values were averaged to obtain the mean minimum. The positive “no inhibitor” control wells were averaged to obtain the mean maximum. Percent of maximal FRET was calculated using following equation: % max FRET=100×[(FSRcmpd−FSRmean min)/(FSRmean max−FSRmean min)]
where FSR=FRET Signal ratio. % Max FRET curves were plotted in Activity Base (Excel) and the IC50 (%), hill slope, z′ and % CV were determined The mean IC50 and standard deviation will be derived from duplicate curves (singlet inhibition curves from two independent dilutions) using Microsoft Excel.
Representative compound data for this assay are listed below in Table II.

Bruton's Tyrosine Kinase (BTK), inactivated state, sequence (Q06187 whole entry): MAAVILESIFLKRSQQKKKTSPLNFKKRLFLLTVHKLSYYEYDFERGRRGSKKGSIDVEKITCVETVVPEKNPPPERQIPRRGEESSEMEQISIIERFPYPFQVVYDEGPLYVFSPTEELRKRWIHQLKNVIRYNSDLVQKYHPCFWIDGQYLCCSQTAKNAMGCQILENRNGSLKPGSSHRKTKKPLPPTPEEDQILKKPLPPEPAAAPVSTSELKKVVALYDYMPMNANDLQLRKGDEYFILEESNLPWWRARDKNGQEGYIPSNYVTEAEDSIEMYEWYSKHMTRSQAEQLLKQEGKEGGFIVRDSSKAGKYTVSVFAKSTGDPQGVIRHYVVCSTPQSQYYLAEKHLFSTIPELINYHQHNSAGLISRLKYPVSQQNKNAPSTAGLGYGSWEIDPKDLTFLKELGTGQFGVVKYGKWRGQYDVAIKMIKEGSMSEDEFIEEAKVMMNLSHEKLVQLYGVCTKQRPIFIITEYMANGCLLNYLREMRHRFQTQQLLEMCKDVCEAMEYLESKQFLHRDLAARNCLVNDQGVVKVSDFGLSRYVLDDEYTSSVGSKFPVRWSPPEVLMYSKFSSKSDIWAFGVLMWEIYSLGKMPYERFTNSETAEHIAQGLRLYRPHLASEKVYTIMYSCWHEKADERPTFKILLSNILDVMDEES

What is called IC50 is the midpoint of a concentration-inhibition curve. `CCC(C)C(=O)C(=O)Nc1cccc(-c2c[nH]c3ncc(NC(=O)OCc4ccccc4)cc23)c1` (centres unmarked) [Compound 11, benzyl N-[3-[3-[(3-methyl-2-oxopentanoyl)amino]phenyl]-1H-pyrrolo[2,3-b]pyridin-5-yl]carbamate] displayed an IC50 of 206 nM.

As for `CCC(=O)C(=O)Nc1cccc(-c2c[nH]c3ncc(NC(=O)OC(C)C)cc23)c1` [Compound 8, propan-2-yl N-[3-[3-(2-oxobutanoylamino)phenyl]-1H-pyrrolo[2,3-b]pyridin-5-yl]carbamate], the IC50 came out at 49 nM.

With `CC(=O)C(=O)Nc1cccc(-c2c[nH]c3ncc(NC(=O)OCc4cccc(F)c4)cc23)c1` [Compound 17, (3-fluorophenyl)methyl N-[3-[3-(2-oxopropanoylamino)phenyl]-1H-pyrrolo[2,3-b]pyridin-5-yl]carbamate], the IC50 turned out to be 43.7 nM.

In the case of `CCC(=O)C(=O)N1CC=C(c2c[nH]c3ncc(NC(=O)OCc4ccccc4Cl)cc23)CC1` [Compound 25, (2-chlorophenyl)methyl N-[3-[1-(2-oxobutanoyl)-3,6-dihydro-2H-pyridin-4-yl]-1H-pyrrolo[2,3-b]pyridin-5-yl]carbamate], the IC50 was determined as 404 nM. Compared with the last molecule, the IC50 is about 9.2-fold higher.

In turn, `CCC(=O)C(=O)N1CC=C(c2c[nH]c3ncc(NC(=O)OCc4cccc(F)c4)cc23)CC1` [Compound 26, (3-fluorophenyl)methyl N-[3-[1-(2-oxobutanoyl)-3,6-dihydro-2H-pyridin-4-yl]-1H-pyrrolo[2,3-b]pyridin-5-yl]carbamate] displayed an IC50 of 384 nM. This IC50 and that of the molecule before are within 1.5-fold of each other.

The molecule `CC(C)OC(=O)Nc1cnc2[nH]cc(-c3cccc(NC(=O)CC#N)c3)c2c1` [Compound 22, propan-2-yl N-[3-[3-[(2-cyanoacetyl)amino]phenyl]-1H-pyrrolo[2,3-b]pyridin-5-yl]carbamate] gave an IC50 of 620 nM.

Regarding `O=C(Nc1cnc2[nH]cc(-c3cccc(NC(=O)C(=O)c4ccccc4)c3)c2c1)OCc1ccccc1` [Compound 13, benzyl N-[3-[3-[(2-oxo-2-phenylacetyl)amino]phenyl]-1H-pyrrolo[2,3-b]pyridin-5-yl]carbamate], the half-inhibitory concentration (IC50) turned out to be 323 nM.

`C=C(C(=O)Nc1cccc(-c2c[nH]c3ncc(NC(=O)OCc4ccccc4)cc23)c1)C(F)(F)F` [Compound 9, benzyl N-[3-[3-[2-(trifluoromethyl)prop-2-enoylamino]phenyl]-1H-pyrrolo[2,3-b]pyridin-5-yl]carbamate] returned an IC50 of 72 nM.

`C=CC(=O)N1CCC(c2c[nH]c3ncc(NC(=O)OC(C)C)cc23)CC1` [Compound 32, propan-2-yl N-[3-(1-prop-2-enoylpiperidin-4-yl)-1H-pyrrolo[2,3-b]pyridin-5-yl]carbamate] had a half-maximal inhibitory concentration (IC50) of 27 nM. Compared with the last molecule, the IC50 is about 2.7-fold lower.

`C=CC(=O)N1C=C(c2c[nH]c3ncc(NC(=O)OCc4ccccc4)cc23)CCC1` [Compound 33, benzyl N-[3-(1-prop-2-enoyl-3,4-dihydro-2H-pyridin-5-yl)-1H-pyrrolo[2,3-b]pyridin-5-yl]carbamate] returned an IC50 of 0.6 nM.

Take `CC(C)OC(=O)Nc1cnc2[nH]cc(-c3cccc(NC(=O)/C=C/CN(C)C)c3)c2c1` [Compound 5, propan-2-yl N-[3-[3-[[(E)-4-(dimethylamino)but-2-enoyl]amino]phenyl]-1H-pyrrolo[2,3-b]pyridin-5-yl]carbamate]: the IC50 was determined as 13 nM.

`C=CC(=O)N1CC(O)(c2c[nH]c3ncc(NC(=O)OCc4ccccc4)cc23)C1` [Compound 34, benzyl N-[3-(3-hydroxy-1-prop-2-enoylazetidin-3-yl)-1H-pyrrolo[2,3-b]pyridin-5-yl]carbamate]: the IC50 amounted to 3.6 nM.

`CCC(=O)C(=O)Nc1cccc(-c2c[nH]c3ncc(NC(=O)OCc4ccccc4Cl)cc23)c1` [Compound 15, (2-chlorophenyl)methyl N-[3-[3-(2-oxobutanoylamino)phenyl]-1H-pyrrolo[2,3-b]pyridin-5-yl]carbamate] registered an IC50 of 60 nM.

The molecule `CC(=O)C(=O)Nc1cccc(-c2c[nH]c3ncc(NC(=O)OCc4cccc(C#N)c4)cc23)c1` [Compound 20, (3-cyanophenyl)methyl N-[3-[3-(2-oxopropanoylamino)phenyl]-1H-pyrrolo[2,3-b]pyridin-5-yl]carbamate] had an IC50 of 137 nM.

As to `C=CC(=O)Nc1cccc(-c2c[nH]c3ncc(NC(=O)OCc4ccccc4)cc23)c1` [Compound 2, benzyl N-[3-[3-(prop-2-enoylamino)phenyl]-1H-pyrrolo[2,3-b]pyridin-5-yl]carbamate], the IC50 is 0.3 nM.

In turn, `N#CC1(C(=O)Nc2cccc(-c3c[nH]c4ncc(NC(=O)OCc5ccccc5)cc34)c2)CC1` [Compound 21, benzyl N-[3-[3-[(1-cyanocyclopropanecarbonyl)amino]phenyl]-1H-pyrrolo[2,3-b]pyridin-5-yl]carbamate] returned a concentration for half-maximal inhibition (IC50) of 287 nM.

The molecule `C=CC(=O)N1CCC(c2c[nH]c3ncc(NC(=O)OCc4ccccc4)cc23)CC1` [Compound 31, benzyl N-[3-(1-prop-2-enoylpiperidin-4-yl)-1H-pyrrolo[2,3-b]pyridin-5-yl]carbamate] displayed an IC50 of 0.6 nM.

Turning to `CN(C)C/C=C/C(=O)Nc1cccc(-c2c[nH]c3ncc(NC(=O)OCc4ccccc4)cc23)c1` [Compound 1, benzyl N-[3-[3-[[(E)-4-(dimethylamino)but-2-enoyl]amino]phenyl]-1H-pyrrolo[2,3-b]pyridin-5-yl]carbamate], the IC50 was 7 nM. Compared with the last molecule, the IC50 is about 12-fold higher.

In the case of `CC(=O)C(=O)N1CC=C(c2c[nH]c3ncc(NC(=O)OCc4ccccc4Cl)cc23)CC1` [Compound 24, (2-chlorophenyl)methyl N-[3-[1-(2-oxopropanoyl)-3,6-dihydro-2H-pyridin-4-yl]-1H-pyrrolo[2,3-b]pyridin-5-yl]carbamate], the IC50 stood at 165 nM.

As for `CN(C)C/C=C/C(=O)Nc1ccccc1-c1c[nH]c2ncc(NC(=O)OCc3ccccc3)cc12` [Compound 23, benzyl N-[3-[2-[[(E)-4-(dimethylamino)but-2-enoyl]amino]phenyl]-1H-pyrrolo[2,3-b]pyridin-5-yl]carbamate], the IC50 is 331 nM.

In turn, `CCC(=O)C(=O)Nc1cccc(-c2c[nH]c3ncc(NC(=O)OCc4cccc(C#N)c4)cc23)c1` [Compound 19, (3-cyanophenyl)methyl N-[3-[3-(2-oxobutanoylamino)phenyl]-1H-pyrrolo[2,3-b]pyridin-5-yl]carbamate] came in with an IC50 of 114 nM.

`C=C(C(=O)Nc1cccc(-c2c[nH]c3ncc(NC(=O)OCc4cccc(F)c4)cc23)c1)C(F)(F)F` [Compound 18, (3-fluorophenyl)methyl N-[3-[3-[2-(trifluoromethyl)prop-2-enoylamino]phenyl]-1H-pyrrolo[2,3-b]pyridin-5-yl]carbamate]: the IC50 worked out at 123 nM.

The molecule `CC(C)(C)C(=O)C(=O)Nc1cccc(-c2c[nH]c3ncc(NC(=O)OCc4ccccc4)cc23)c1` [Compound 10, benzyl N-[3-[3-[(3,3-dimethyl-2-oxobutanoyl)amino]phenyl]-1H-pyrrolo[2,3-b]pyridin-5-yl]carbamate] gave an IC50 of 100 nM.

Molecule `CC(=O)C(=O)N1CC=C(c2c[nH]c3ncc(NC(=O)OCc4cccc(C#N)c4)cc23)CC1` [Compound 29, (3-cyanophenyl)methyl N-[3-[1-(2-oxopropanoyl)-3,6-dihydro-2H-pyridin-4-yl]-1H-pyrrolo[2,3-b]pyridin-5-yl]carbamate] registered an IC50 of 700 nM.

`CC(C)CC(=O)C(=O)Nc1cccc(-c2c[nH]c3ncc(NC(=O)OCc4ccccc4)cc23)c1` [Compound 12, benzyl N-[3-[3-[(4-methyl-2-oxopentanoyl)amino]phenyl]-1H-pyrrolo[2,3-b]pyridin-5-yl]carbamate]: the IC50 amounted to 285 nM. Compared with the last molecule, the IC50 is about 2.5-fold lower.

On to `C=CC(=O)Nc1cccc(-c2c[nH]c3ncc(NC(=O)OC(C)C)cc23)c1` [Compound 3, propan-2-yl N-[3-[3-(prop-2-enoylamino)phenyl]-1H-pyrrolo[2,3-b]pyridin-5-yl]carbamate], for which the IC50 amounted to 0.3 nM. This IC50 is about 950-fold lower than that of the molecule before.

As to `C=CC(=O)N1CC=C(c2c[nH]c3ncc(NC(=O)OCc4ccccc4)cc23)CC1` [Compound 30, benzyl N-[3-(1-prop-2-enoyl-3,6-dihydro-2H-pyridin-4-yl)-1H-pyrrolo[2,3-b]pyridin-5-yl]carbamate], the IC50 is 1.2 nM.

`COCCC(=O)N(C)c1cccc(-c2c[nH]c3ncc(NC(=O)OC(C)C)cc23)c1` [Compound 7, propan-2-yl N-[3-[3-[3-methoxypropanoyl(methyl)amino]phenyl]-1H-pyrrolo[2,3-b]pyridin-5-yl]carbamate]: the IC50 came out at 880 nM.

For `CCC(=O)C(=O)Nc1cccc(-c2c[nH]c3ncc(NC(=O)OCc4ccccc4)cc23)c1` [Compound 4, benzyl N-[3-[3-(2-oxobutanoylamino)phenyl]-1H-pyrrolo[2,3-b]pyridin-5-yl]carbamate], the IC50 came out at 8 nM.
